Measured values reported in patent publication EP4740947A1, “PHARMACEUTICAL COMBINATION OF EGFR KINASE INHIBITOR AND C-MET KINASE INHIBITOR FOR TREATING TUMOR DISEASES” (Jiangsu AoSaiKang Pharmaceutical Co., Ltd., priority 2023, dated 2025).

Tested on: NCI-H1975-HGF
Assay: Efficacy study in xenograft model established with engineered cell line NCI-H1975-HGF in immunodeficient mice
Format: in vivo, B-NDG mice
Conditions: for NCI-H1975 HGF tumor volume (mm^3): mean ± standard error; for TGI (%) / ΔT/ΔC (%): Day 15 vs vehicle
Experimental: The efficacy of the test drugs in a xenograft model established with the engineered cell line NCI-H1975-HGF in immunodeficient mice was verified.
Table 1. Cell information
B-NDG mice, female, age: 8 weeks, weight: 18-22 g, purchased from Biocytogen.
• Vehicle: 20% solutol/80% 100 mM sodium acetate buffer pH 5.5; • ASK-MET: hydrochloride of the compound of Formula (II), prepared with 20% solutol/80% 100 mM sodium acetate buffer pH 5.5, concentration: 0.2 mg/mL; • ASK-EGFR: compound of Formula (I), prepared with 0.5% sodium carboxymethyl cellulose solution (0.5%CMC-Na), concentration: 2 mg/mL. • Solutol: polyethylene glycol-15 hydroxystearate; • 100 mM sodium acetate buffer pH 5.5; • 20% solutol/80% 100 mM sodium acetate buffer pH 5.5 means that the volume ratio of solutol to 100 mM sodium acetate buffer pH 5.5 in the drug solution was 20:80, the same below.
1) NCI-H1975-HGF was resuscitated and cultured in vitro to obtain 1.5*10^7 cells. 2) 15 8-10-week-old immunodeficient mice were adaptively raised for 1 week, and weighed. Table 2. Inoculation information
4) After inoculation, the tumor volume and weight were measured twice a week. When the average tumor volume reached about 100 mm^3, the animals were randomly divided into 4 groups according to the tumor volume and weight, each group having 3 animals. The animals were immediately administered after grouping. The day of administration was regarded as day 0. Table 3. Grouping and administration information
After inoculation and before grouping, when the tumor was visible, the tumor volume of the test animals was measured once a week. After grouping, the tumor volume of animals in the experiment was measured twice a week. The tumor volume was measured by a two-way measurement method. The major and minor diameter of the tumor were measured by vernier caliper, and then the tumor volume was calculated by the formula TV = 1/2 × a × b^2, where a is the major diameter of the tumor and b is the minor diameter of the tumor.
At the end of the experiment, the following analysis methods were used for data analysis (Table 4). Table 4. Data analysis methods
For an experiment having two groups, T-Test analysis method is used; and for comparison of three or more groups, One-Way ANOVA method is used for analysis. For the potential synergistic effect, Two-Way ANOVA is used. There is a significant difference when p value is less than 0.05.

[1] = ASK-EGFR 20 mg/kg p.o. QD×15 (G4)
[2] = ASK-MET 2 mg/kg p.o. QD×15 (G2)

SMILES	NCI-H1975 HGF tumor volume (mm^3) (Day 0, ASK-EGFR 20 mg/kg p.o. QD×15 (G4))	NCI-H1975 HGF tumor volume (mm^3) (Day 2, ASK-EGFR 20 mg/kg p.o. QD×15 (G4))	NCI-H1975 HGF tumor volume (mm^3) (Day 5, ASK-EGFR 20 mg/kg p.o. QD×15 (G4))	NCI-H1975 HGF tumor volume (mm^3) (Day 8, ASK-EGFR 20 mg/kg p.o. QD×15 (G4))	NCI-H1975 HGF tumor volume (mm^3) (Day 12, ASK-EGFR 20 mg/kg p.o. QD×15 (G4))	NCI-H1975 HGF tumor volume (mm^3) (Day 15, ASK-EGFR 20 mg/kg p.o. QD×15 (G4))	TGI (%) [1] [%]	ΔT/ΔC (%) [1] [%]	NCI-H1975 HGF tumor volume (mm^3) (Day 0, ASK-MET 2 mg/kg p.o. QD×15 (G2))	NCI-H1975 HGF tumor volume (mm^3) (Day 2, ASK-MET 2 mg/kg p.o. QD×15 (G2))	NCI-H1975 HGF tumor volume (mm^3) (Day 5, ASK-MET 2 mg/kg p.o. QD×15 (G2))	NCI-H1975 HGF tumor volume (mm^3) (Day 8, ASK-MET 2 mg/kg p.o. QD×15 (G2))	NCI-H1975 HGF tumor volume (mm^3) (Day 12, ASK-MET 2 mg/kg p.o. QD×15 (G2))	NCI-H1975 HGF tumor volume (mm^3) (Day 15, ASK-MET 2 mg/kg p.o. QD×15 (G2))	TGI (%) [2] [%]	ΔT/ΔC (%) [2] [%]
C=CC(=O)Nc1cc(Nc2ncc(Cl)c(Nc3ccc4ccccc4c3)n2)c(OC)cc1N(C)CCN(C)C [ASK-EGFR, N-((5-((5-chloro-4-((naphthalen-2-yl)amino))pyrimidin-2-yl)amino)-2-((N-methyl-N-dimethylaminoethyl)amino)-4-methoxyphenyl) acrylamide]	94.47 ±9.54	154.47 ±24.23	201.41 ±24.69	357.90 ±31.91	440.56 ±16.92	589.86±36.92	58.01	41.99	–	–	–	–	–	–	–	–
CC(C)(O)CN1CCC(COc2cnc(-c3cccc(Cn4c(=O)ccn5c6cc(C#N)ccc6nc45)c3)nc2)CC1 [ASK-MET]	–	–	–	–	–	–	–	–	96.28 ±7.10	147.46 ±23.06	274.61 ±85.69	434.60 ±55.60	658.86 ±111.99	940.03±159.86	28.48	71.52
